One assay concerns SARS-CoV-2 M^pro P132H. To be noted: cited from earlier work.
Assay [1] has as its target T1, SARS-CoV-2 M^pro T135I (Severe acute respiratory syndrome coronavirus 2, UniProt P0DTC1, T3398I). As to conditions: cited from earlier work.
For assay [2], the target named is T2, SARS-CoV-2 M^pro H164N (Severe acute respiratory syndrome coronavirus 2, UniProt P0DTC1, H3427N). As to conditions: cited from earlier work.
For assay [3], the target named is T3, SARS-CoV-2 M^pro G15S (Severe acute respiratory syndrome coronavirus 2, UniProt P0DTC1, G3278S). To be noted: cited from earlier work.
Assay [4] addresses T4, SARS-CoV-2 M^pro D248E (Severe acute respiratory syndrome coronavirus 2, UniProt P0DTC1, D3511E). To be noted: cited from earlier work.
The subject of assay [5] is SARS-CoV-2-EGFP replicon L167F. The assay is classed as cell-based.
The subject of assay [6] is SARS-CoV-2-EGFP replicon S144A. The assay is classed as cell-based.
The test system of assay [7] is SARS-CoV-2-EGFP replicon T21I + L50F. The assay is classed as cell-based.
Assay [8] deals with SARS-CoV-2-EGFP replicon L50F + E166A. The assay is classed as cell-based.
Assay [9] concerns SARS-CoV-2-EGFP replicon E166A. The assay is classed as cell-based.
Assay [10] relates to SARS-CoV-2-EGFP replicon T21I. The assay is classed as cell-based.
The subject of assay [11] is SARS-CoV-2-EGFP replicon L50F + E166A + L167F. The assay is classed as cell-based.
For assay [12], the system named is SARS-CoV-2-EGFP replicon L50F. The assay is classed as cell-based.
For assay [13], the system named is SARS-CoV-2 D614G B.1 (ancestral). The assay is classed as cell-based.
Assay [14] concerns the target SARS-CoV-2 M^pro L50F + E166A (Severe acute respiratory syndrome coronavirus 2, UniProt P0DTC1, E3429A/L3313F). The assay is classed as biochemical.
The target in assay [15] is SARS-CoV-2 M^pro L50F + E166V (Severe acute respiratory syndrome coronavirus 2, UniProt P0DTC1, E3429V/L3313F). The assay is classed as biochemical.
The target in assay [16] is SARS-CoV-2 M^pro H172Y + P252L (Severe acute respiratory syndrome coronavirus 2, UniProt P0DTC1, H3435Y/P3515L). The assay is classed as biochemical.
In assay [17] the target is SARS-CoV-2 M^pro T21I + T304I (Severe acute respiratory syndrome coronavirus 2, UniProt P0DTC1, T3284I/T3567I). The assay is classed as biochemical.
Assay [18] concerns the target SARS-CoV-2 M^pro L50F + F140L + L167F + T304I (Severe acute respiratory syndrome coronavirus 2, UniProt P0DTC1, F3403L/L3313F/L3430F/T3567I). The assay is classed as biochemical.
For assay [19], the target named is SARS-CoV-2 M^pro L50F + A173V (Severe acute respiratory syndrome coronavirus 2, UniProt P0DTC1, A3436V/L3313F). The assay is classed as biochemical.
Assay [20] concerns the target SARS-CoV-2 M^pro A173V + T304I (Severe acute respiratory syndrome coronavirus 2, UniProt P0DTC1, A3436V/T3567I). The assay is classed as biochemical.
The target of a further assay is SARS-CoV-2 M^pro T21I (Severe acute respiratory syndrome coronavirus 2, UniProt P0DTC1, T3284I). The assay is classed as biochemical.
Another assay deals with SARS-CoV-2 M^pro A260V (Severe acute respiratory syndrome coronavirus 2, UniProt P0DTC1, A3523V). The assay is classed as biochemical.
For a further assay, the target named is SARS-CoV-2 M^pro E166A (Severe acute respiratory syndrome coronavirus 2, UniProt P0DTC1, E3429A). The assay is classed as biochemical.
Assay [21] concerns the target SARS-CoV-2 M^pro L50F + T304I (Severe acute respiratory syndrome coronavirus 2, UniProt P0DTC1, L3313F/T3567I). The assay is classed as biochemical.
Assay [22] deals with T4, SARS-CoV-2 M^pro D248E. The assay is classed as biochemical.
Assay [23] has as its target T1, SARS-CoV-2 M^pro T135I. The assay is classed as biochemical.
Assay [24] deals with T2, SARS-CoV-2 M^pro H164N. The assay is classed as biochemical.
For assay [25], the target named is SARS-CoV-2 M^pro T21I + E166V (Severe acute respiratory syndrome coronavirus 2, UniProt P0DTC1, E3429V/T3284I). The assay is classed as biochemical.
The target in the next assay is SARS-CoV-2 M^pro Q189K (Severe acute respiratory syndrome coronavirus 2, UniProt P0DTC1, Q3452K). The assay is classed as biochemical.
The target of assay [26] is SARS-CoV-2 M^pro T21I + C160F + A173V+ V186A + T304I (Severe acute respiratory syndrome coronavirus 2, UniProt P0DTC1, A3436V/C3423F/T3284I/T3567I/V3449A). The assay is classed as biochemical.
For the next assay, the target named is SARS-CoV-2 M^pro L50F (Severe acute respiratory syndrome coronavirus 2, UniProt P0DTC1, L3313F). The assay is classed as biochemical.
A further assay addresses SARS-CoV-2 M^pro S144A (Severe acute respiratory syndrome coronavirus 2, UniProt P0DTC1, S3407A). The assay is classed as biochemical.
Assay [27] has as its target SARS-CoV-2 M^pro L50F + E166A + L167F (Severe acute respiratory syndrome coronavirus 2, UniProt P0DTC1, E3429A/L3313F/L3430F). The assay is classed as biochemical.
Assay [28] deals with SARS-CoV-2 M^pro T21I + A173V (Severe acute respiratory syndrome coronavirus 2, UniProt P0DTC1, A3436V/T3284I). The assay is classed as biochemical.
Another assay deals with SARS-CoV-2 M^pro H172Y (Severe acute respiratory syndrome coronavirus 2, UniProt P0DTC1, H3435Y). The assay is classed as biochemical.
Assay [29] concerns the target SARS-CoV-2 M^pro T21I + A173V + T304I (Severe acute respiratory syndrome coronavirus 2, UniProt P0DTC1, A3436V/T3284I/T3567I). The assay is classed as biochemical.
Assay [30] concerns the target SARS-CoV-2 M^pro T21I + L50F + A193P + S301P (Severe acute respiratory syndrome coronavirus 2, UniProt P0DTC1, A3456P/L3313F/S3564P/T3284I). The assay is classed as biochemical.
The target of assay [31] is T3, SARS-CoV-2 M^pro G15S. The assay is classed as biochemical.
The target of a further assay is SARS-CoV-2 M^pro K90R (Severe acute respiratory syndrome coronavirus 2, UniProt P0DTC1, K3353R). The assay is classed as biochemical.
Assay [32] deals with SARS-CoV-2 M^pro T135I + T304I (Severe acute respiratory syndrome coronavirus 2, UniProt P0DTC1, T3398I/T3567I). The assay is classed as biochemical.
Another assay concerns the target SARS-CoV-2 M^pro E166V (Severe acute respiratory syndrome coronavirus 2, UniProt P0DTC1, E3429V). The assay is classed as biochemical.
Assay [33] has as its target SARS-CoV-2 M^pro T21I + L50F (Severe acute respiratory syndrome coronavirus 2, UniProt P0DTC1, L3313F/T3284I). The assay is classed as biochemical.
In assay [34] the target is SARS-CoV-2 M^pro T21I + S144A (Severe acute respiratory syndrome coronavirus 2, UniProt P0DTC1, S3407A/T3284I). The assay is classed as biochemical.
For assay [35], the target named is SARS-CoV-2 M^pro T21I + S144A + T304I (Severe acute respiratory syndrome coronavirus 2, UniProt P0DTC1, S3407A/T3284I/T3567I). The assay is classed as biochemical.

For `CC(C)(C)[C@H](NC(=O)C(F)(F)F)C(=O)N1C[C@H]2[C@@H]([C@H]1C(=O)N[C@H](C#N)C[C@@H]1CCNC1=O)C2(C)C` [nirmatrelvir], the “effect of P132H variant on inhibition” value in the assay with SARS-CoV-2 M^pro P132H is listed as “no effect”. Also, the “resistance in the Mpro assay” value at SARS-CoV-2 M^pro T135I [1], on SARS-CoV-2 M^pro H164N [2], at SARS-CoV-2 M^pro G15S [3] and at SARS-CoV-2 M^pro D248E [4] was “~fourfold” in each case.

On to `N#C[C@H](C[C@@H]1CCCNC1=O)NC(=O)[C@H](CC1CC1)NC(=O)c1cc2cccc(Cl)c2[nH]1` [pomotrelvir], for which the EC50 – broadly, the concentration giving half of the maximal effect – in [5] (read-out: EC50 Mean (SD)) was 56 nM; in assay [6] (read-out: EC50 Mean (SD)), 92 nM; in assay [7] (read-out: EC50 Mean (SD)) it was 110 nM; in assay [8] (read-out: EC50 Mean (SD)) it was 410 nM; in [9] (read-out: EC50 Mean (SD)), 110 nM; in assay [10] (read-out: EC50 Mean (SD)) it was 33 nM. The EC50 worked out at 1400 nM in [11] (read-out: EC50 Mean (SD)), 14 nM in assay [12] (read-out: EC50 Mean (SD)) and 151 nM in assay [13] (read-out: EC50 Mean (SD)). In addition, the EC90 (in general, the concentration at which the effect reaches the 90% level) in assay [5] (read-out: EC90 Mean (SD)) is 510 nM; in assay [6] (read-out: EC90 Mean (SD)), 560 nM; in assay [7] (read-out: EC90 Mean (SD)), 780 nM; in [8] (read-out: EC90 Mean (SD)) it was 1800 nM; in [9] (read-out: EC90 Mean (SD)), 710 nM; in assay [10] (read-out: EC90 Mean (SD)) it was 270 nM. Also, the EC90 in assay [11] (read-out: EC90 Mean (SD)) came to 8300 nM; in [12] (read-out: EC90 Mean (SD)), 150 nM; in [13] (read-out: EC90 Mean (SD)), 547 nM.

As to GC376, the IC50 (usually the point on the concentration scale where inhibition reaches its midpoint) in assay [14] was determined as 270 nM; in [15], 430 nM; in assay [16], 280 nM; in [17], 50 nM; in assay [18] it was 170 nM; in assay [19], 60 nM. In addition, the IC50 is 100 nM in assay [20]; 20 nM against SARS-CoV-2 M^pro T21I; 20 nM against SARS-CoV-2 M^pro A260V; 320 nM on SARS-CoV-2 M^pro E166A; 60 nM in assay [21]; 30 nM against SARS-CoV-2 M^pro D248E [22]. Also, the IC50 amounted to 20 nM on SARS-CoV-2 M^pro T135I [23]; 80 nM against SARS-CoV-2 M^pro H164N [24]; 590 nM in assay [25]; 50 nM against SARS-CoV-2 M^pro Q189K; 90 nM in assay [26]; 20 nM against SARS-CoV-2 M^pro L50F. In addition, the IC50 against SARS-CoV-2 M^pro S144A stood at 120 nM; in [27], 760 nM; in assay [28], 80 nM; against SARS-CoV-2 M^pro H172Y, 410 nM; in [29], 90 nM; in assay [30] it was 70 nM. In addition, the IC50 on SARS-CoV-2 M^pro G15S [31] is 20 nM; against SARS-CoV-2 M^pro K90R it was 10 nM; in assay [32] it was 70 nM; at SARS-CoV-2 M^pro E166V, 660 nM; in [33] it was 20 nM; in assay [34], 120 nM. Besides, in assay [35], the IC50 was 190 nM.

These data come from article PMC10649086 (Antimicrobial Agents and Chemotherapy, 2023).
